Experimental data: PubChem BioAssay AID1919002 (Molecular Pharmacology Branch, DTP, NCI, 2023)
Values joined by “and” are separate entries in the source; they are usually repeats but may differ in a detail not shown here. Equal entries are not always repeated.

Test system: 743489-274-T-PDC complex spheroid growth
Assay: Anticancer human tumor 743489-274-T-PDC patient-derived renal cell carcinoma cell line growth inhibition [AhR]
Settings: for viability, T/C: stronger effect = lower value; active = viability on the fitted dose curve at most 10% of control; inactive = the rest
Summary of the method: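 Spheroids combined tumor cells with HUVEC endothelial cells and human MSCs as stroma. AhR antagonists were paired with standard or investigational drugs, each dosed in half-log steps down from near clinical Cmax, or from 10 microM where Cmax was unknown.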

[1] = curve of first compound, second compound 0.1 µM
[2] = curve of first compound, second compound 0.316 µM
[3] = curve of first compound, second compound 1 µM
[4] = curve of first compound, second compound 3.16 µM
[5] = curve of first compound, second compound 10 µM
[6] = second compound 0.1 µM, first compound 0.0316 µM
[7] = second compound 0.1 µM, first compound 0.1 µM
[8] = second compound 0.1 µM, first compound 0.316 µM
[9] = second compound 0.1 µM, first compound 1 µM
[10] = second compound 0.1 µM, first compound 3.16 µM
[11] = second compound 0.1 µM, first compound 10 µM
[12] = second compound 0.316 µM, first compound 0.0316 µM
[13] = second compound 0.316 µM, first compound 0.1 µM
[14] = second compound 0.316 µM, first compound 0.316 µM
[15] = second compound 0.316 µM, first compound 1 µM
[16] = second compound 0.316 µM, first compound 3.16 µM
[17] = second compound 0.316 µM, first compound 10 µM
[18] = second compound 1 µM, first compound 0.0316 µM
[19] = second compound 1 µM, first compound 0.1 µM
[20] = second compound 1 µM, first compound 0.316 µM
[21] = second compound 1 µM, first compound 1 µM
[22] = second compound 1 µM, first compound 3.16 µM
[23] = second compound 1 µM, first compound 10 µM
[24] = second compound 3.16 µM, first compound 0.0316 µM
[25] = second compound 3.16 µM, first compound 0.1 µM
[26] = second compound 3.16 µM, first compound 0.316 µM
[27] = second compound 3.16 µM, first compound 1 µM
[28] = second compound 3.16 µM, first compound 3.16 µM
[29] = second compound 3.16 µM, first compound 10 µM
[30] = second compound 10 µM, first compound 0.0316 µM
[31] = second compound 10 µM, first compound 0.1 µM
[32] = second compound 10 µM, first compound 0.316 µM
[33] = second compound 10 µM, first compound 1 µM
[34] = second compound 10 µM, first compound 3.16 µM
[35] = second compound 10 µM, first compound 10 µM
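Note: spheroids exposed to agents for 7 days before readout.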
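Throughout, for viability, T/C: 100% = DMSO vehicle control wells.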

CC(C)CC(NC(=O)C(Cc1ccccc1)NC(=O)c1cnccn1)B(O)O (configuration not stated) + Cc1cncc(-c2nc(NCCc3c[nH]c4ccccc34)c3ncn(C(C)C)c3n2)c1
0.0493 µM: IC50 [1]
0.021 µM: IC50 [3]
0.0139 µM: IC50 [5]
0.0209 µM: IC50 [4]
inactive: viability, T/C (second compound 0.1 µM, first compound 0.000949 µM) 94.6% | viability, T/C (second compound 0.1 µM, first compound 0.003 µM) 96.3% | viability, T/C (second compound 0.1 µM, first compound 0.00949 µM) 106% | viability, T/C (second compound 0.1 µM, first compound 0.03 µM) 75.8% | viability, T/C (second compound 0.1 µM, first compound 0.0949 µM) 16.6% | viability, T/C (second compound 0.1 µM, first compound 0.3 µM) 11.4% | viability, T/C (second compound 0.316 µM, first compound 0.000949 µM) 98.8% | viability, T/C (second compound 0.316 µM, first compound 0.003 µM) 96.9% | viability, T/C (second compound 0.316 µM, first compound 0.00949 µM) 108% | viability, T/C (second compound 0.316 µM, first compound 0.03 µM) 45.2% | viability, T/C (second compound 0.316 µM, first compound 0.0949 µM) 18.4% | viability, T/C (second compound 0.316 µM, first compound 0.3 µM) 10.7% | viability, T/C (second compound 1 µM, first compound 0.000949 µM) 99.8% | viability, T/C (second compound 1 µM, first compound 0.003 µM) 103% | viability, T/C (second compound 1 µM, first compound 0.00949 µM) 93% | viability, T/C (second compound 1 µM, first compound 0.03 µM) 30.3% | viability, T/C (second compound 1 µM, first compound 0.0949 µM) 17.6% | viability, T/C (second compound 1 µM, first compound 0.3 µM) 8.63% | viability, T/C (second compound 3.16 µM, first compound 0.000949 µM) 107% | viability, T/C (second compound 3.16 µM, first compound 0.003 µM) 107% | viability, T/C (second compound 3.16 µM, first compound 0.00949 µM) 102% | viability, T/C (second compound 3.16 µM, first compound 0.03 µM) 25.9% | viability, T/C (second compound 10 µM, first compound 0.000949 µM) 124% | viability, T/C (second compound 10 µM, first compound 0.003 µM) 113% | viability, T/C (second compound 10 µM, first compound 0.00949 µM) 73.2%
active: viability, T/C (second compound 3.16 µM, first compound 0.0949 µM) 13.1% | viability, T/C (second compound 3.16 µM, first compound 0.3 µM) 4.96% | viability, T/C (second compound 10 µM, first compound 0.03 µM) 2.6% | viability, T/C (second compound 10 µM, first compound 0.0949 µM) 1.14% | viability, T/C (second compound 10 µM, first compound 0.3 µM) 0.75%
0.0272 µM: IC50 [2]

O=C(c1cc(Cc2n[nH]c(=O)c3ccccc23)ccc1F)N1CCN(C(=O)C2CC2)CC1 + CC(CO)NC(=O)c1cc(-c2ccc(Cl)cc2)nn(-c2cnn(C)c2)c1=O
inactive: viability, T/C [6] 106% | viability, T/C [7] 100% | viability, T/C [8] 98.3% | viability, T/C [9] 103% | viability, T/C [10] 95.3% | viability, T/C [11] 101% | viability, T/C [12] 86.3% | viability, T/C [13] 95.2% | viability, T/C [14] 91.8% | viability, T/C [15] 91.9% | viability, T/C [16] 91% | viability, T/C [17] 96.1% | viability, T/C [18] 93.4% | viability, T/C [19] 96.3% | viability, T/C [20] 100% | viability, T/C [21] 93.1% | viability, T/C [22] 94.8% | viability, T/C [23] 97% | viability, T/C [24] 93.6% | viability, T/C [25] 92.5% | viability, T/C [26] 99.4% | viability, T/C [27] 87.5% | viability, T/C [28] 96.4% | viability, T/C [29] 92.9% | viability, T/C [30] 103% | viability, T/C [31] 109% | viability, T/C [32] 97.9% | viability, T/C [33] 96.7% | viability, T/C [34] 93.7% | viability, T/C [35] 105%
> 10 µM: IC50 [1] | IC50 [2] | IC50 [3] | IC50 [4] | IC50 [5]

COc1cccc2c1C(=O)c1c(O)c3c(c(O)c1C2=O)CC(O)(C(=O)CO)CC3OC1CC(N)C(O)C(C)O1 (configuration not stated) + CC(CO)NC(=O)c1cc(-c2ccc(Cl)cc2)nn(-c2cnn(C)c2)c1=O
9.32 µM: IC50 [2]
6.53 µM: IC50 [4]
inactive: viability, T/C [6] 101% | viability, T/C [7] 106% | viability, T/C [8] 107% | viability, T/C [9] 96.3% | viability, T/C [10] 108% | viability, T/C [11] 40.6% | viability, T/C [12] 93.7% | viability, T/C [13] 106% | viability, T/C [14] 108% | viability, T/C [15] 93.5% | viability, T/C [16] 102% | viability, T/C [17] 46.7% | viability, T/C [18] 110% | viability, T/C [19] 95% | viability, T/C [20] 107% | viability, T/C [21] 97% | viability, T/C [22] 93.2% | viability, T/C [23] 45.5% | viability, T/C [24] 88% | viability, T/C [25] 91.6% | viability, T/C [26] 108% | viability, T/C [27] 96.7% | viability, T/C [28] 88.2% | viability, T/C [29] 27.4% | viability, T/C [30] 92% | viability, T/C [31] 103% | viability, T/C [32] 101% | viability, T/C [33] 89.7% | viability, T/C [34] 51.2%
8.98 µM: IC50 [3]
3.24 µM: IC50 [5]
active: viability, T/C [35] 0.36%
8.45 µM: IC50 [1]

COc1cc(Nc2ncc3c(n2)-c2ccc(Cl)cc2C(c2c(F)cccc2OC)=NC3)ccc1C(=O)O + CC(CO)NC(=O)c1cc(-c2ccc(Cl)cc2)nn(-c2cnn(C)c2)c1=O
inactive: viability, T/C [6] 96.9% | viability, T/C [7] 95.2% | viability, T/C [8] 91.4% | viability, T/C [9] 84.4% | viability, T/C [10] 86.4% | viability, T/C [11] 88.9% | viability, T/C [12] 98.7% | viability, T/C [13] 90.3% | viability, T/C [14] 91.3% | viability, T/C [15] 86.6% | viability, T/C [16] 93.5% | viability, T/C [17] 85.5% | viability, T/C [18] 90.6% | viability, T/C [19] 97.3% | viability, T/C [20] 95.5% | viability, T/C [21] 76.4% | viability, T/C [22] 87.9% | viability, T/C [23] 87.3% | viability, T/C [24] 101% | viability, T/C [25] 104% | viability, T/C [26] 95.2% | viability, T/C [27] 85.7% | viability, T/C [28] 82% | viability, T/C [29] 84.9% | viability, T/C [30] 91.2% | viability, T/C [31] 102% | viability, T/C [32] 86.9% | viability, T/C [33] 93.9% | viability, T/C [34] 88.6% | viability, T/C [35] 94.5%
> 10 µM: IC50 [1] | IC50 [2] | IC50 [3] | IC50 [4] | IC50 [5]

CC(C)c1c(-c2ccccc2)nc2c(C#N)c[nH]n2c1=O
> 10 µM: IC50 (curve of compound)
inactive: viability, T/C (compound 0.0316 µM) 110% and 112% and 107% | viability, T/C (compound 0.1 µM) 110% and 105% and 109% | viability, T/C (compound 0.316 µM) 101% (2×) and 103% | viability, T/C (compound 1 µM) 109% and 104% and 112% | viability, T/C (compound 3.16 µM) 107% and 106% and 111% | viability, T/C (compound 10 µM) 101% and 107% and 102%

Cn1ncnc1C1c2n[nH]c(=O)c3cc(F)cc(c23)NC1c1ccc(F)cc1 (configuration not stated) + Cc1cncc(-c2nc(NCCc3c[nH]c4ccccc34)c3ncn(C(C)C)c3n2)c1
> 0.1 µM: IC50 [1] | IC50 [2] | IC50 [3] | IC50 [4] | IC50 [5]
inactive: viability, T/C (second compound 0.1 µM, first compound 0.000316 µM) 95.5% | viability, T/C (second compound 0.1 µM, first compound 0.001 µM) 104% | viability, T/C (second compound 0.1 µM, first compound 0.00316 µM) 90.8% | viability, T/C (second compound 0.1 µM, first compound 0.01 µM) 87.9% | viability, T/C [6] 89.6% | viability, T/C [7] 98.8% | viability, T/C (second compound 0.316 µM, first compound 0.000316 µM) 88.8% | viability, T/C (second compound 0.316 µM, first compound 0.001 µM) 91.8% | viability, T/C (second compound 0.316 µM, first compound 0.00316 µM) 96.1% | viability, T/C (second compound 0.316 µM, first compound 0.01 µM) 96.2% | viability, T/C [12] 93.3% | viability, T/C [13] 95.7% | viability, T/C (second compound 1 µM, first compound 0.000316 µM) 103% | viability, T/C (second compound 1 µM, first compound 0.001 µM) 96% | viability, T/C (second compound 1 µM, first compound 0.00316 µM) 97% | viability, T/C (second compound 1 µM, first compound 0.01 µM) 101% | viability, T/C [18] 96.7% | viability, T/C [19] 88.2% | viability, T/C (second compound 3.16 µM, first compound 0.000316 µM) 121% | viability, T/C (second compound 3.16 µM, first compound 0.001 µM) 102% | viability, T/C (second compound 3.16 µM, first compound 0.00316 µM) 99.2% | viability, T/C (second compound 3.16 µM, first compound 0.01 µM) 114% | viability, T/C [24] 99.3% | viability, T/C [25] 94.5% | viability, T/C (second compound 10 µM, first compound 0.000316 µM) 128% | viability, T/C (second compound 10 µM, first compound 0.001 µM) 117% | viability, T/C (second compound 10 µM, first compound 0.00316 µM) 139% | viability, T/C (second compound 10 µM, first compound 0.01 µM) 121% | viability, T/C [30] 111% | viability, T/C [31] 131%
